Experiments:
healthy volunteers [1] = assay: Adverse events and discontinuations; assay type: in vivo, human
Procedure: Electrocardiogram analysis was performed at a blinded central reading facility (ERT, East Bridgewater, NJ) in digital format, with paper tracings obtained and archived immediately on site. Vital signs were assessed daily. Clinical laboratory parameters were assessed at baseline and at the end of study. Self-reported adverse events were continuously recorded from the first study treatment (placebo, day −1) through the end of study on day 4.

healthy volunteers [2] = assay: Thorough QT/QTc study: QTcF change from baseline on day 3 (12-lead ECG); assay type: in vivo, human; details: for QTcF change from time-matched baseline, Difference (Midostaurin – Placebo) / Upper bound of the one-sided 95% CI of Difference (Midostaurin – Placebo) in QTcF change: day 3; for QTcF change on day 3 from time-matched baseline: midostaurin arm
Description: This study was a phase I, randomized, double-blind, placebo- and active-controlled, 3-way, parallel-group study conducted at a single center in the United States and approved by the Arkansas Research Medical Testing, LLC, Institutional Review Board. The design followed the recommendations of the International Conference on Harmonisation of Technical Requirements for Registration of Pharmaceuticals for Human Use (ICH) E14 guideline on “The Clinical Evaluation of QT/QTc Interval Prolongation and Proarrhythmic Potential for Non-Antiarrhythmic Drugs” [19]. As such, the trial included a concurrent positive control group and addressed intrinsic variability by conducting multiple ECGs at baseline and during the study. The study was conducted according to the ethical principles of the Declaration of Helsinki, and written informed consent was obtained from each subject during screening.
The treatment regimen was selected to achieve maximal plasma exposure for QTc evaluation while minimizing the risks of excessive or prolonged exposure in healthy volunteers.
The baseline comparison was from day −1 to day 3 at matched time points.
The following hypothesis was tested to confirm that the study had sufficient assay sensitivity: [drawing 3] [drawing 4] where μmoxi(t) was the mean QTcF change from baseline observed following moxifloxacin 400 mg at time point t. If the null hypothesis was rejected, the study had sufficient sensitivity. The Simes method was used for the protection of an experiment-wise 5% type I error [22, 23]. With the Simes method, the original P values corresponding to 0.5, 1, 2, 3, and 4 h post baseline are ordered increasingly, that is, P 1 ≤ P 2 ≤ P 3 ≤ P 4 ≤ P 5. After the Simes correction, the P values were 5P 1, 5P 2/2, 5P 3/3, 5P 4/4, and P 5 respectively. If any of the 5 adjusted P values were <.05, assay sensitivity was claimed. Only the participants who completed all scheduled doses of study medication from day 1 to day 3 and had at least 1 ECG on day −1 (baseline) and at least 1 ECG on day 3 (time-matched day 3 data for the time-matched analysis) were included in the assay sensitivity test.
Electrocardiogram measurements at each time point were calculated as an average of 3 separate ECG extractions or replicates. (Each extraction was the mean of 3 beats.) If fewer than 3 measurements were available, the available samples were averaged (i.e., a minimum of 1 measure was required). For each subject, the time-matched baseline value was subtracted from the QT/QTc intervals to determine the change from baseline in QT/QTc intervals for that subject. The 2 null hypotheses described above were tested in a linear mixed-effect model with a compound symmetry covariance structure. The model included the baseline measure as covariate and treatment, time, and the treatment-by-time interaction as fixed effects, where time was a categorical variable and subject was a random effect.
The time-matched analysis was conducted on the QTcF change from the time-matched baseline as recommended by the ICH E14 guideline. Although modeling change from the time-matched baseline was the primary analysis, the change from the time-averaged baseline was also analyzed using the same model. For the averaged baseline, each triplicate ECG collection was averaged first, and then the averaged baseline was calculated based on all the averaged triplicate ECG and unscheduled ECGs.
(§1) Standard triplicate 12-lead ECGs were obtained at 9 time points over 24 h at […] and at 2 time points on day 1. Electrocardiogram analysis was performed at a blinded central reading facility (ERT, East Bridgewater, NJ) in digital format, with paper tracings obtained and archived immediately on site. Vital signs were assessed daily. Clinical laboratory parameters were assessed at baseline and at the end of study. Self-reported adverse events were continuously recorded from the first study treatment (placebo, day −1) through the end of study on day 4.

[3] = Plasma pharmacokinetics, noncompartmental analysis; details: human, plasma, 75 mg; for Cmax: mean (SD)
Procedure: Blood samples for PK analysis were collected predose and 0.5, 1, 2, 3, 4, 8, 12, and 24 h post dose on days 1 and 3 at the same time as ECG assessments. […] Noncompartmental analysis (WinNonlin™ version 5.2, Pharsight, Sunnyvale, California) was performed to determine the following PK parameters: C max, T max, minimum (trough) plasma concentration over a dosing interval (C min), and AUC calculated using a trapezoidal method. For moxifloxacin, the AUC from time 0 to the last measurable concentration sampling time was calculated (AUC0–tlast).

[4] = system: patients with ASM, mast cell leukemia, or systemic mastocytosis; details: 100 mg twice daily; 26 patients; preliminary results; cited from earlier work
healthy volunteers [5] = assay: Outlier analysis of QTc and other ECG parameters, ECG morphology; assay type: in vivo, human; details: for QTcB >30 ms, time-matched change from baseline, participants: text: 30- to 60-ms category
Procedure: Outlier analysis for QTc was also exploratory because this study was not powered to detect individuals with genetic sensitivity to potential QT-prolonging drugs. The nonspecific outlier criterion was a change from baseline in QTc interval of 30–60 ms.
as §1

[6] = midostaurin, 24 h post dose on day 3

CO[C@@H]1[C@H](N(C)C(=O)c2ccccc2)C[C@H]2O[C@]1(C)n1c3ccccc3c3c4c(c5c6ccccc6n2c5c31)C(=O)NC4 [Midostaurin, N-benzoylstaurosporin]
Abdominal pain (healthy volunteers [1]; human, in vivo): 4 (5.1) no. (%) | Arthralgia (healthy volunteers [1]; human, in vivo): 0 (0.0) no. (%) | Diarrhea (healthy volunteers [1]; human, in vivo): 25 (31.6) no. (%) | Discontinued, main cause Adverse event(s) (healthy volunteers [1]; human, in vivo): 19 (23.8) no. (%) | Dizziness (healthy volunteers [1]; human, in vivo): 0 (0.0) no. (%) | Dry mouth (healthy volunteers [1]; human, in vivo): 0 (0.0) no. (%) | Dysmenorrhea (healthy volunteers [1]; human, in vivo): 1 (1.3) no. (%) | Dyspepsia (healthy volunteers [1]; human, in vivo): 1 (1.3) no. (%) | Eructation (healthy volunteers [1]; human, in vivo): 3 (3.8) no. (%) | Flatulence (healthy volunteers [1]; human, in vivo): 3 (3.8) no. (%) | Flushing (healthy volunteers [1]; human, in vivo): 2 (2.5) no. (%) | Headache (healthy volunteers [1]; human, in vivo): 5 (6.3) no. (%) | Hiccups (healthy volunteers [1]; human, in vivo): 2 (2.5) no. (%) | Hot flushes (healthy volunteers [1]; human, in vivo): 1 (1.3) no. (%) | Nausea (healthy volunteers [1]; human, in vivo): 30 (38.0) no. (%) | Pollakiuria (healthy volunteers [1]; human, in vivo): 0 (0.0) no. (%) | Rash (healthy volunteers [1]; human, in vivo): 0 (0.0) no. (%) | Salivary hypersecretion (healthy volunteers [1]; human, in vivo): 2 (2.5) no. (%) | Sexually transmitted disease (healthy volunteers [1]; human, in vivo): 1 (1.3) no. (%) | Tachycardia (healthy volunteers [1]; human, in vivo): 2 (2.5) no. (%) | Vomiting (healthy volunteers [1]; human, in vivo): 19 (24.1) no. (%) | Participants with adverse events (healthy volunteers [1]; human, in vivo, 4 day): 43 (54.4) no. (%) | discontinuations because of gastrointestinal events of vomiting (healthy volunteers [1]; midostaurin arm, vomiting within 4 h of dosing): 17 n | Discontinued, main cause Adverse event(s) (healthy volunteers [1]; randomized set): 19 no. (%) | Discontinued, main cause Death (healthy volunteers [1]; randomized set): 0 (0.0) no. (%) | QTcF change from time-matched baseline, Difference (Midostaurin – Placebo) (healthy volunteers [2]; 0 h): -2.7 ms | Upper bound of the one-sided 95% CI of Difference (Midostaurin – Placebo) in QTcF change (healthy volunteers [2]; 0 h): 1.3 ms | QTcF change from time-matched baseline, Difference (Midostaurin – Placebo) (healthy volunteers [2]; 0.5 h): -1.9 ms | Upper bound of the one-sided 95% CI of Difference (Midostaurin – Placebo) in QTcF change (healthy volunteers [2]; 0.5 h): 2.1 ms | QTcF change from time-matched baseline, Difference (Midostaurin – Placebo) (healthy volunteers [2]; 1 h): -3.7 ms | Upper bound of the one-sided 95% CI of Difference (Midostaurin – Placebo) in QTcF change (healthy volunteers [2]; 1 h): 0.3 ms | QTcF change from time-matched baseline, Difference (Midostaurin – Placebo) (healthy volunteers [2]; 2 h): -5.1 ms | Upper bound of the one-sided 95% CI of Difference (Midostaurin – Placebo) in QTcF change (healthy volunteers [2]; 2 h): -1.1 ms | QTcF change from time-matched baseline, Difference (Midostaurin – Placebo) (healthy volunteers [2]; 3 h): -3.9 ms | Upper bound of the one-sided 95% CI of Difference (Midostaurin – Placebo) in QTcF change (healthy volunteers [2]; 3 h): 0.1 ms | QTcF change from time-matched baseline, Difference (Midostaurin – Placebo) (healthy volunteers [2]; 4 h): -3.4 ms | Upper bound of the one-sided 95% CI of Difference (Midostaurin – Placebo) in QTcF change (healthy volunteers [2]; 4 h): 0.6 ms | QTcF change from time-matched baseline, Difference (Midostaurin – Placebo) (healthy volunteers [2]; 8 h): -0.7 ms | Upper bound of the one-sided 95% CI of Difference (Midostaurin – Placebo) in QTcF change (healthy volunteers [2]; 8 h): 3.3 ms | QTcF change from time-matched baseline, Difference (Midostaurin – Placebo) (healthy volunteers [2]; 12 h): -0.6 ms | Upper bound of the one-sided 95% CI of Difference (Midostaurin – Placebo) in QTcF change (healthy volunteers [2]; 12 h): 3.4 ms | QTcF change from time-matched baseline, Difference (Midostaurin – Placebo) (healthy volunteers [2]; 24 h): 0.7 ms | Upper bound of the one-sided 95% CI of Difference (Midostaurin – Placebo) in QTcF change (healthy volunteers [2]; 24 h): 4.7 ms | maximum mean QTcF change from time-matched baseline compared with placebo (healthy volunteers [2]; midostaurin 75 mg twice daily days 1-2, once day 3, 24 h post dose on day 3, ECG set): 0.7 ms | QTcF change on day 3 from time-matched baseline (healthy volunteers [2]; 0 h): -3.2 ms | QTcF change on day 3 from time-matched baseline (healthy volunteers [2]; 0.5 h after administration): -5.2 ms | QTcF change on day 3 from time-matched baseline (healthy volunteers [2]; 1 h after administration): -6.3 ms | QTcF change on day 3 from time-matched baseline (healthy volunteers [2]; 2 h after administration): -6.2 ms | QTcF change on day 3 from time-matched baseline (healthy volunteers [2]; 3 h after administration): -5.2 ms | QTcF change on day 3 from time-matched baseline (healthy volunteers [2]; 4 h after administration): -6.4 ms | QTcF change on day 3 from time-matched baseline (healthy volunteers [2]; 8 h after administration): -1.9 ms | QTcF change on day 3 from time-matched baseline (healthy volunteers [2]; 12 h after administration): -3.1 ms | QTcF change on day 3 from time-matched baseline (healthy volunteers [2]; 24 h after administration): -3.9 ms | highest upper bound of 95% CI, QTcF change from time-averaged baseline compared with placebo (healthy volunteers [2]; [6]): 4.9 ms | maximum mean QTcF change from time-averaged baseline compared with placebo (healthy volunteers [2]; [6]): 2.5 ms | Tmax ([3]; oral, time of peak concentrations post dose, midostaurin dosing, days 1 and 3): 1 h | Cmax ([3]; po, Day 1 (single dose), midostaurin 75 mg oral): 2140 ng/mL | Cmax ([3]; po, Day 3 (twice daily), midostaurin 75 mg oral): 2270 ng/mL | Tmax ([3]; po, Tmax, median (range), Day 1 (single dose), midostaurin 75 mg oral): 1 h | Tmax ([3]; po, Tmax, median (range), Day 3 (twice daily), midostaurin 75 mg oral): 1.1 h | overall response rate [4]: 69% | new U-wave abnormalities (healthy volunteers [5]; 12-lead ECG): No new U-wave abnormalities | new post baseline T-wave abnormalities (healthy volunteers [5]; 12-lead ECG): Three | effects on heart rate, atrioventricular conduction, cardiac depolarization (PR and QRS interval durations) (healthy volunteers [5]; midostaurin 75 mg twice daily): no effects on heart rate, atrioventricular conduction, or cardiac depolarization | PR increase ≥25% and resultant PR >200 ms, participants (healthy volunteers [5]; safety set): 0 no. (%) | QRS increase ≥25% and resultant QRS >100 ms, participants (healthy volunteers [5]; safety set): 0 no. (%) | QTcB >60 ms, time-matched change from baseline, participants (healthy volunteers [5]; safety set): 0 no. (%) | QTcF >30 ms, time-matched change from baseline, participants (healthy volunteers [5]; safety set): 0 no. (%) | QTcF >60 ms, time-matched change from baseline, participants (healthy volunteers [5]; safety set): 0 no. (%) | QTcI >30 ms, time-matched change from baseline, participants (healthy volunteers [5]; safety set): 0 no. (%) | QTcI >60 ms, time-matched change from baseline, participants (healthy volunteers [5]; safety set): 0 no. (%) | RR decrease ≥25% and resultant RR <600 ms, participants (healthy volunteers [5]; safety set): 1 (1.3) no. (%) | RR increase ≥25% and resultant RR >1,200 ms, participants (healthy volunteers [5]; safety set): 1 (1.3) no. (%) | QTcF New >450 ms, participants (healthy volunteers [5]; safety set, post baseline): 0 no. (%) | QTcB New >450 ms, participants (healthy volunteers [5]; safety set, post baseline, text: between 450 and 480 ms): 1 (1.3%) no. (%) | QTcB >30 ms, time-matched change from baseline, participants (healthy volunteers [5]; safety set): 1 (1.3) no. (%) | QTcB >30 ms, time-matched change from baseline, participants (healthy volunteers [5]; safety set, listed as midostaurin): 1 (1.3%) no. (%)

From article PMC3337405 (Cancer Chemotherapy and Pharmacology, 2012)
